From patent publication US8507463B2, “Nucleotide analogue prodrug and the preparation thereof” (Jiangsu Chia Tai Tianqing Pharmaceutical Co., Ltd., priority 2005, dated 2013)
Where two headings read alike, the source gives them in different places.

Experiments:
Duck Hepatitis B Virus = assay: Anti-viral (anti-HBV) test in vivo, DHBV-DNA level by PCR; set-up: species or system GaoYou pockmark ducks; conditions: ducks, once a day, day 0 level as base line of 100
Method: Two-month old pockmark ducks vertically infected with Duck Hepatitis B Virus were selected as animal models to conduct anti-HBV test in vivo, the efficacy was investigated. 80 GaoYou pockmark ducks were divided randomly into. 8 groups, 10 ducks per groups, three groups were given TD fumarate at the dosage of 5, 15, 45 mg/kg once a day respectively, other three groups were given Tenofovir Disoproxil Fumarate at the dosage of 5, 15, 45 mg/kg once a day respectively, other one group was given Adefovir Dipivoxil at the dosage of 15 mg/kg once a day and the remaining group was blank control group. All the groups were administered for 28 days, and blood samples were taken every 7 days to determine the inhibitory effect to the DHBV-DNA level by PCR, inhibition rate was listed in the following table.

[1] = Light exposure test (4500±500 Lx); assay type: physicochemical; conditions: light 4500±500 Lx
From the text: Samples were evenly spread out and placed in open culture dishes and the thickness thereof was less than 5 mm, then distances were adjusted until the illumination intensity was 4500±500 Lx, samples were taken on the fifth and tenth day respectively for determination, compared with the result of day 0, results were listed in the table below: […]

[2] = Acceleration test (40° C., relative humidity 75%); assay type: physicochemical
Method: Samples were sealed with polyethylene plastic bags, placed in the thermostatic drying chamber at 40±2° C. with relative humidity of 75±5% for 3 months. Then the samples were taken at the end of the first, second and third month respectively for determination, compared with the result of day 0, results were listed in the table below: […]

[3] = Bioavailability: blood concentration-time from plasma radioactivity; assay type: in vivo; conditions: mice, intragastric 30 mg/kg
Method: 10 mice were randomly divided into 2 groups, 5 per group, intragastricly administered 3H-TD fumarate and Tenofovir Disoproxil Fumarate at 30 mg/kg with radio dose of 135 μCi/kg respectively. Plasm samples in different times were taken to measure the radioactivity, which was then converted into the plasma concentration.
Comparison of the blood concentration (ug/ml)-time of 3H-TD fumarate and Tenofovir Disoproxil Fumarate.

[4] = High temperature test (60° C.); assay type: physicochemical; conditions: sealed ampoules
Method: Samples were sealed in clean glass ampoules and put in 60° C. thermostatic drying chamber, then they were taken on the fifth and tenth day respectively for determination, compared with the result of day 0, results were listed in the table below:
Samples were sealed in clean glass ampoules and put in 60° C. thermostatic drying chamber, then they were taken on the fifth and tenth day respectively for determination, compared with the result of day 0, results were listed in the table below

[5] = assay type: physicochemical; conditions: for amount of solvent (ml), 0.1N HCl / amount of solvent (ml), 0.1N NaOH / amount of solvent (ml), anhydrous ethanol / amount of solvent (ml), methanol / amount of solvent (ml), water: to dissolve 1 g of sample
[6] = Stability analysis, overall conclusion in words; assay type: physicochemical; conditions: from light, high temperature, high humidity and acceleration tests
[7] = Acute toxicity test, median lethal dose (LD50); conditions: both sexes, mouse, in vivo, oral, mice, infused into the stomach, observed 14 days
Method: TD fumarate and TD crystalline form A were dissolved in 0.1M citric acid aqueous solution respectively, 140 healthy mice with 18˜22 g body-weight was selected, randomly divided into 14 groups, 10 per group, and the number of male and female mice were equal.
Following the preliminary test, TD fumarate and TD crystalline form A were administered to 7 different dosing groups by infusing into the stomach, observed for 14 days consecutively to investigate the toxic reaction and death cases of mice and then LD50 was calculated.

[8] = High humidity test (room temperature, relative humidity 75±5%); assay type: physicochemical; conditions: 25° C.
Method: Samples were evenly spread out and placed in open culture dishes, wherein the thickness thereof was less than 5 mm, put in a thermostatic drying chamber at room temperature (25° C.) with relative humidity of 75±5%. Then the samples were taken on the fifth and tenth day respectively for determination, compared with the result of day 0, results were listed in the table below

BEAGLE dogs = assay: Long term toxicity test (kidney function); assay type: in vivo; conditions: 6 months
Method: BEAGLE dogs as animal models, Adefovir Dipivoxil as control sample, long term toxicity of TD crystalline form A was investigated, especially the effects of TD crystalline form A on kidney function was investigated.
30 BEAGLE dogs were randomly divided into 5 groups, 6 dogs per group. One group as blank control group, three groups as low dosing, medium dosing and high dosing group of TD crystalline form A respectively. The dosage of low dosing group was 5 mg/kg once per day, the dosage of medium dosing group was 15 mg/kg once per day and the dosage of high dosing group was 45 mg/kg once per day. The remaining group was Adefovir Dipivoxil control group, dosed at 40 mg/kg once per day.
Drugs mixed with salad oil were administered to the animals for 6 months consecutively, then observed for 21 consecutive days after drug withdrawal.

[9] = human, cited from earlier work
[10] = read-out: LD50, 95% confident limit
[11] = BEAGLE dogs, 40 mg/kg once per day

C[C@H](Cn1cnc2c(N)ncnc21)OCP(=O)(OCOC(=O)C(C)(C)C)OCOC(=O)C(C)(C)C.O=C(O)/C=C/C(=O)O [TD fumarate]
DHBV-DNA level, First week (Duck Hepatitis B Virus; 5 mg/ml group): 92 ± 7
DHBV-DNA level, Fourth week (Duck Hepatitis B Virus; 5 mg/ml group): 40 ± 5
DHBV-DNA level, Second week (Duck Hepatitis B Virus; 5 mg/ml group): 71 ± 5
DHBV-DNA level, Third week (Duck Hepatitis B Virus; 5 mg/ml group): 50 ± 9
DHBV-DNA level, First week (Duck Hepatitis B Virus; 15 mg/ml group): 78 ± 9
DHBV-DNA level, Fourth week (Duck Hepatitis B Virus; 15 mg/ml group): 25 ± 7
DHBV-DNA level, Second week (Duck Hepatitis B Virus; 15 mg/ml group): 59 ± 8
DHBV-DNA level, Third week (Duck Hepatitis B Virus; 15 mg/ml group): 39 ± 7
DHBV-DNA level, First week (Duck Hepatitis B Virus; 45 mg/ml group): 65 ± 6
DHBV-DNA level, Fourth week (Duck Hepatitis B Virus; 45 mg/ml group): 16 ± 8
DHBV-DNA level, Second week (Duck Hepatitis B Virus; 45 mg/ml group): 43 ± 5
DHBV-DNA level, Third week (Duck Hepatitis B Virus; 45 mg/ml group): 25 ± 10
content (%) ([1]; day 0): 99.2%
content (%) ([1]; day 5): 99.2%
content (%) ([1]; day 10): 99.1%
content (%) ([2]; end of month 1): 99.0%
content (%) ([2]; end of month 2): 98.7%
content (%) ([2]; end of month 3): 98.5%
content (%) ([2]; month 0): 99.3%
blood concentration ([3]; 10 min): 0.73 µg/mL
blood concentration ([3]; 30 min): 1.44 µg/mL
blood concentration ([3]; 45 min): 1.77 µg/mL
blood concentration ([3]; 60 min): 2.52 µg/mL
blood concentration ([3]; 90 min): 1.34 µg/mL
blood concentration ([3]; 120 min): 1.03 µg/mL
blood concentration ([3]; 180 min): 0.94 µg/mL
blood concentration ([3]; 240 min): 0.73 µg/mL
blood concentration ([3]; 360 min): 0.55 µg/mL
blood concentration ([3]; 480 min): 0.34 µg/mL
content (%) ([4]; day 0): 99.5%
content (%) ([4]; day 5): 99.5%
content (%) ([4]; day 10): 99.4%
solubility conclusion, 0.1N HCl [5]: soluble
solubility conclusion, 0.1N NaOH [5]: soluble
solubility conclusion, anhydrous ethanol [5]: freely soluble
solubility conclusion, methanol [5]: freely
amount of solvent (ml), 0.1N HCl [5]: 18.5 mL
amount of solvent (ml), 0.1N NaOH [5]: 65 mL
amount of solvent (ml), anhydrous ethanol [5]: 15.5 mL
amount of solvent (ml), methanol [5]: 7.4 mL
amount of solvent (ml), water ([5]; water): 120 mL
solubility conclusion, water ([5]; water): soluble
water solubility compared with other solid TD forms, in words ([5]; water): better water solubility
stability, overall conclusion in words [6]: good solubility and stabilities
LD50 at 14 days ([7]; read-out: LD50): 6050 mg/kg
LD50 at 14 days [7, 10]: 4500 to 7870 mg/kg
content (%) ([8]; day 0): 99.2%
Weight gain after moisture absorption (%) ([8]; day 5): 0%
content (%) ([8]; day 5): 99.1%
Weight gain after moisture absorption (%) ([8]; day 10): 0%
content (%) ([8]; day 10): 99.1%

C[C@H](Cn1cnc2c(N)ncnc21)OCP(=O)(OCOC(=O)C(C)(C)C)OCOC(=O)C(C)(C)C [TD crystalline form B, 9-[2-(R)-[bis[pivaloyloxymethoxy]-phosphinylmethoxy]propyl]adenine]
content (%) ([1]; day 0): 99.2%
content (%) ([1]; day 5): 98.8%
content (%) ([1]; day 10): 98.7%
content (%) ([2]; end of month 1): 95.8%
content (%) ([2]; end of month 2): 92.7%
content (%) ([2]; end of month 3): 88.7%
content (%) ([4]; day 0): 98.8%
content (%) ([4]; day 5): 97.7%
content (%) ([4]; day 10): 97.0%
solubility conclusion, 0.1N HCl [5]: soluble
solubility conclusion, 0.1N NaOH [5]: slightly
solubility conclusion, anhydrous ethanol [5]: freely soluble
solubility conclusion, methanol [5]: freely soluble
amount of solvent (ml), 0.1N HCl [5]: 27.3 mL
amount of solvent (ml), 0.1N NaOH [5]: 790 mL
amount of solvent (ml), anhydrous ethanol [5]: 6.0 mL
amount of solvent (ml), methanol [5]: 1.5 mL
amount of solvent (ml), water ([5]; water): 840 mL
solubility conclusion, water ([5]; water): slightly
stability, overall conclusion in words [6]: good stabilities
content (%) ([8]; day 0): 99.6%
Weight gain after moisture absorption (%) ([8]; day 5): 0%
content (%) ([8]; day 5): 98.2%
Weight gain after moisture absorption (%) ([8]; day 10): 0.2%
content (%) ([8]; day 10): 96.9%

C[C@H](Cn1cnc2c(N)ncnc21)OCP(=O)(OCOC(=O)C(C)(C)C)OCOC(=O)C(C)(C)C [TD crystalline form A, 9-[2-(R)-[bis[pivaloyloxymethoxy]-phosphinylmethoxy]propyl]adenine]
content (%) ([1]; day 0): 98.7%
content (%) ([1]; day 5): 98.3%
content (%) ([1]; day 10): 98.5%
content (%) ([2]; end of month 1): 93.1%
content (%) ([2]; end of month 2): 90.5%
content (%) ([2]; end of month 3): 86.3%
content (%) ([2]; month 0): 99.7%
urea nitrogen (BEAGLE dogs; BEAGLE dogs, 5 mg/kg once per day): 17.1 ± 1.32 mmol/L
urea nitrogen (BEAGLE dogs; BEAGLE dogs, 15 mg/kg once per day): 14.2 ± 1.20 mmol/L
urea nitrogen (BEAGLE dogs; BEAGLE dogs, 45 mg/kg once per day): 15.7 ± 1.08 mmol/L
hematological, blood and urine biochemical parameters versus blank control group, in words (BEAGLE dogs; BEAGLE dogs, 5, 15 and 45 mg/kg once per day): no significant differences
content (%) ([4]; day 0): 99.1%
content (%) ([4]; day 5): 98.6%
content (%) ([4]; day 10): 98.4%
solubility conclusion, 0.1N HCl [5]: soluble
solubility conclusion, 0.1N NaOH [5]: slightly
solubility conclusion, anhydrous ethanol [5]: freely soluble
solubility conclusion, methanol [5]: freely soluble
amount of solvent (ml), 0.1N HCl [5]: 33.5 mL
amount of solvent (ml), 0.1N NaOH [5]: 910 mL
amount of solvent (ml), anhydrous ethanol [5]: 5.0 mL
amount of solvent (ml), methanol [5]: 1.4 mL
amount of solvent (ml), water ([5]; water): 880 mL
solubility conclusion, water ([5]; water): soluble
stability, overall conclusion in words [6]: good stabilities
LD50 at 14 days ([7]; read-out: LD50): 4310 mg/kg
LD50 at 14 days [7, 10]: 2830 to 5440 mg/kg
content (%) ([8]; day 0): 99.7%
Weight gain after moisture absorption (%) ([8]; day 5): 4.3%
content (%) ([8]; day 5): 98.5%
Weight gain after moisture absorption (%) ([8]; day 10): 5.6%
content (%) ([8]; day 10): 97.2%

CC(C)(C)C(=O)OCOP(=O)(COCCn1cnc2c(N)ncnc21)OCOC(=O)C(C)(C)C [Adefovir Dipivoxil]
DHBV-DNA level, First week (Duck Hepatitis B Virus; 15 mg/ml group): 85 ± 7
DHBV-DNA level, Fourth week (Duck Hepatitis B Virus; 15 mg/ml group): 33 ± 6
DHBV-DNA level, Second week (Duck Hepatitis B Virus; 15 mg/ml group): 70 ± 6
DHBV-DNA level, Third week (Duck Hepatitis B Virus; 15 mg/ml group): 55 ± 7
levels of serum carnine and urea nitrogen, in words (BEAGLE dogs; [11]): significantly higher
urea nitrogen (BEAGLE dogs; [11]): 24.7 ± 1.35 mmol/L
adverse reaction and renal dysfunction ([9]; 50 mg/day and 30 mg/day): higher incidence
nephrotoxicity in clinical trials ([9]; recent clinical trials): observed
